Measurements: BindingDB's records for doi:10.1016/j.ejmech.2017.07.016 (South Dakota State University, 2017)

Experiment: Antagonist activity at human CRFR1 expressed in HEK293 cells assessed as inhibition of sauvagine-induced cAMP accumulation by measuring sauvagine EC50 at 1 uM after 30 mins (Rvb = 0.203 nM)

- EC50: 1.1 nM
SMILES: CCCCN(CC)c1nc(C)nc2c1sc(=N)n2-c1c(C)cc(C)cc1C
